Values of other authors, collected in patent US20020171063A1, “Reduced toxicity ethylene glycol-based antifreeze/heat transfer fluid concentrates and antifreeze/heat transfer fluids” (priority 2001, published 2002).

Test system: laboratory rats

Compound | acute oral toxicity (LD50)
CC(O)CO (centres unmarked) [PG, 1,2-propanediol] | 20,000 mg/kg
O.O.O.O.O=B[O-].[Na+] [metaborate] | 1,700 mg/kg
